From patent US20190382850A1, “METHOD FOR IDENTIFYING MITOCHONDRIAL DNA IN EXTRACELLULAR VESICLES AND TREATMENT OF MTDNA-RELATED DISORDERS AND CANCER” (Memorial Sloan-Kettering Cancer Center, priority 2017, published 2019)

System: ND1 DNA in EVs from patients
Assay: mtDNA ND1 level (qPCR) in circulating EVs of patients before and after therapy
Format: in vivo, human
Conditions: FIG. 7d
Description: (Panel a), Dot plot of nuclear DNA copy number quantification as determined by qPCR for GAPDH gene in circulating EVs isolated from fresh collected plasma (5-8 ml) of 8 healthy controls and 20 luminal breast cancer patients at different stage of their disease (Table 5). Each point corresponds to a patient sample. (Panel b), Schematic and gel electrophoresis of whole mtDNA genome amplified in several patient derived circulating EV-DNA resulting from 46 overlapping PCR amplicons to cover all the mtDNA genome. (Panel c), mtDNA ND1 level change (Ct qPCR value from 2 ng of total EV-DNA) determined in the same patient (two different examples are reported) following time and therapy response (PR, partial response; Stable Disease; POD, progression of disease); (Panel d) mtDNA ND1 level change (Ct qPCR value from 2 ng of total EV-DNA) determined in two different patients (#1, #2) before and after a certain therapy. Data are reported as error bars, mean±s.d. of n=3 independent experiments. […]
DNA and cDNAs were amplified by quantitative PCR (qPCR) using the Applied Biosystem Viia™ 7 Real-Time PCR System in the Power SYBR® Green PCR Master Mix Buffer. […] For analysis, ΔΔct method was applied and fold change was calculated (2^−ΔΔct). […]

With COc1cccc2c1C(=O)c1c(O)c3c(c(O)c1C2=O)C[C@@](O)(C(=O)CO)C[C@@H]3O[C@H]1C[C@H](N)[C@H](O)[C@H](C)O1 [Doxorubicin] the “ND1 DNA level in EVs from patients receiving the therapy” value was “higher”.
